Measurements from patent publication US20080318943A1, “Compounds and Uses Thereof - 848” (ASTRAZENECA AB, priority 2007, published 2008).
“And” between values parts separate entries of the source, which are not always exact repeats. Identical values can stand only once.

Assays:
GABAA receptor α1β2γ2 = molecular target: T1, GABAA receptor α1β2γ2 (Homo sapiens, UniProt P14867+P18507); assay: Two-electrode voltage-clamp potentiation of GABA EC10 current in Xenopus oocytes, GABAA1; format: cell-based; details: percentage potentiation of GABA EC10 current divided by that of diazepam
T1 construct: expressed in transfected cells; host or cells: Xenopus laevis oocytes injected with cRNA
Experimental: GABAA receptors were heterologously expressed in Xenopus oocytes by injecting cRNA corresponding to human α1, α2, α3, α5, β2, P3 and γ2 subunits of the GABAA receptor genes. The specific subunit combinations (subtypes) were as follows: α1β2γ2, α2β3γ2, α3β3γ2, and α5β3γ2. The EC10 of GABA is approximated for each cell. Stability of GABA-mediated (EC10) current is established. Modulatory effect of test compound is determined and compared across subtypes. […] Thus, the assay can characterize modulatory effects and determine subtype selectivity of test compounds on major subtypes of GABAA receptors.
Xenopus laevis frogs (Xenopus I, Kalamazoo, Mich.) were anesthetized using 0.15% tricaine. Surgically removed ovarian lobes were teased out in OR2 solution (82 NaCl, 2.5 KCl, 5 HEPES, 1.5 NaH2PO4, 1 MgCl2, 0.1 EDTA, in mM, pH 7.4). The oocytes were defolliculated by incubation in 25 mL OR2 containing 0.2% collagenase 1A (SIGMA) two times for about 60 minutes on a platform shaker and stored in Leibovitz's L-15 medium. Oocytes were injected the following day in 0.5× Leibovitz's L-15 medium containing […] gentamycin, 10 units/ml penicillin, and […] streptomycin.
Capped cRNAs from the linearized vectors containing human α1, β2 and γ2 subunits of the GABAA receptor genes were mixed in ratio of […]. Oocytes were injected with 25-50 nL of mixed RNA with an appx molar ratio for α1, β2, and γ2 as 1:1:10. Oocyte recordings were done 2-10 days after injection. The same methods apply to subtypes derived from α2β3γ2, α3β3γ2, and α5β3γ2, except for 1:1:1 ratio was used for α, β, and γ subunits.
All measurements were done in a medium containing ND-96 (96 NaCl, 2 KCl, 1.8 CaCl2.2H2O, 1 MgCl2.6H2O, 5 HEPES, in mM, pH 7.5). Two-electrode voltage-clamp recording was carried out using OpusXpress amplifier (Axon Instruments, Foster City, Calif.), which allows simultaneous recording from 8 oocytes. Oocytes were impaled with two electrodes of 1-2 MΩ tip resistance when filled with 3M KCl. Recordings were begun when membrane potential became stable at potentials negative to −50-−60 mV. Membrane potential was held at −60 mV. […] The concentration of GABA corresponded to the EC10 value calculated for each oocyte. The modulator pulses started 30 s before the GABA pulse so as to allow preincubation with the modulator. A set of 3 pulses with just GABA without modulator was given prior to the modulator-containing pulses to define the baseline GABA response. Two oocytes per each experiment were dedicated to observe the effect of diazepam on GABA response to ensure the presence of γ2 subunit in the GABAA pentameric complex, which imparts diazepam sensitivity to the complex.
Current amplitude (i) was measured from baseline to peak using Clampfit (Axon Inst., Foster City, Calif.). Potentiation was calculated as percent change from the baseline GABA current flux 100×(imod/icontrol)−1) where imod=current mediated by modulator+GABA and icontrol=current mediated by GABA alone. […] Similarly, a value of −50% potentiation means the presence of modulator caused a 50% decrease in the control current. Various other data shown here were fitted and plotted using GraphPad Prism (GraphPad Software, Inc. San Diego, Calif.). The percentage potentiation was converted to relative potentiation by dividing it with percentage potentiation value obtained from the same assay with diazepam as a control.

[1] = molecular target: T2, GABAA2 receptors (α2, β3, γ2 receptor subunits transfected into Sf9 cells) (Homo sapiens, UniProt P18507+P47869); assay: GABAA2 Binding Method ([3H]-Flunitrazepam displacement); details: [3H]-Flunitrazepam ~2 nM, α2β3γ2 Sf9 membranes, 1 hr at 4° C.
T2 construct: host or cells: Sf9 cells (membranes)
Experimental: In some embodiments, the binding test is directed to a subtype of GABAA receptors, such as GABAA1 receptors (i.e., those containing the α1 subunit), GABAA2 receptors (i.e., those containing the α2 subunit), GABAA3 receptors (i.e., those containing the α3 subunit) and GABAA5 receptors (i.e., those containing the α5 subunit).
[^3H]-Flunitrazepam (Cat #NET567): Prepare 10× stock=20 nM, [F} in assay=˜2 nM
1. […] Add 5 ul of 30 uM flumazenil to wells 12 D-E for 50% control wells.
5. Add 25 μl [^3H]-Flunitrazepam (Automation Program 6). Incubate for 1 hr at 4° C.
6. Collect membranes on a cell harvester onto GF/B filter plates (pre-wet with dH2O and wash 5×400 μl/well, with cold assay buffer. (First 3 washes are considered hot; last two are cold.)
Data is analyzed by calculating percent of control, IC50, and Ki in an XLfit template. The following formula is used in the templates: […]

T1 sequence (P14867 28-456): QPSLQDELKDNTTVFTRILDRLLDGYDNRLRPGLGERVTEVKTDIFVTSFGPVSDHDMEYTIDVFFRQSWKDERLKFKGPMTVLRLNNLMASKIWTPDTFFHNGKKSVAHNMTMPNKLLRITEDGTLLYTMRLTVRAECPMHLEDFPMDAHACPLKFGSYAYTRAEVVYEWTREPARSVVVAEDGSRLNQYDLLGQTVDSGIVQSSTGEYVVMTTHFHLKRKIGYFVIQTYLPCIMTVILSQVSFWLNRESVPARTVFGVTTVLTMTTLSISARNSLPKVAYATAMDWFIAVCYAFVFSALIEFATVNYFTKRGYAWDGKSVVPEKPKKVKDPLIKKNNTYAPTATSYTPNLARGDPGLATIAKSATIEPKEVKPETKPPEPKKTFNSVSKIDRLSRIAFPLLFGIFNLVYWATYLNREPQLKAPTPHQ
T1 sequence (P47870 25-512 partner limits assumed): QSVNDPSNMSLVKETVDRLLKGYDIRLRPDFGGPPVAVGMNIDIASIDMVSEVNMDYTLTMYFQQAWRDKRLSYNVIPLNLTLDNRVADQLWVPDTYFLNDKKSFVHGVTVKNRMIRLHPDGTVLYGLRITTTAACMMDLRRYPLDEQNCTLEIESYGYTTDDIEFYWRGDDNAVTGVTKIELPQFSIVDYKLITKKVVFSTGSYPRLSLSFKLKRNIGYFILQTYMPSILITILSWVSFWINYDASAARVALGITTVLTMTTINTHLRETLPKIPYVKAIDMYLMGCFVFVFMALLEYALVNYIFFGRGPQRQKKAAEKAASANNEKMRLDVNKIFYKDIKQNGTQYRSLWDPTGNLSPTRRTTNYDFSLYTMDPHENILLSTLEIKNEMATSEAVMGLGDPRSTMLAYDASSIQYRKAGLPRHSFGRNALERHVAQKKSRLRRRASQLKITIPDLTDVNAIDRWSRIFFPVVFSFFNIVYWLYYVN
T1 sequence (P18507 40-475): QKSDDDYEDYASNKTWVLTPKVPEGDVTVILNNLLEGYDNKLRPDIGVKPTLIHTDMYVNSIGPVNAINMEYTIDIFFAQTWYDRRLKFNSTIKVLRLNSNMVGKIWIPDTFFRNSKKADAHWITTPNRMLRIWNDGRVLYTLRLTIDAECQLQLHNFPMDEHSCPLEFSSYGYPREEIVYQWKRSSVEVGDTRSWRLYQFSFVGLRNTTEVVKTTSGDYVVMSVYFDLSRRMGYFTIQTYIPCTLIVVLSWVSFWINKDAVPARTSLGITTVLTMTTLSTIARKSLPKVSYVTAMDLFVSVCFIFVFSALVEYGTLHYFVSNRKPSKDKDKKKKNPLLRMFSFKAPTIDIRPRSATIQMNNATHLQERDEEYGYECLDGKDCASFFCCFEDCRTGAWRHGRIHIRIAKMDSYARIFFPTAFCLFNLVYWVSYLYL
T2 sequence (P47869 29-451): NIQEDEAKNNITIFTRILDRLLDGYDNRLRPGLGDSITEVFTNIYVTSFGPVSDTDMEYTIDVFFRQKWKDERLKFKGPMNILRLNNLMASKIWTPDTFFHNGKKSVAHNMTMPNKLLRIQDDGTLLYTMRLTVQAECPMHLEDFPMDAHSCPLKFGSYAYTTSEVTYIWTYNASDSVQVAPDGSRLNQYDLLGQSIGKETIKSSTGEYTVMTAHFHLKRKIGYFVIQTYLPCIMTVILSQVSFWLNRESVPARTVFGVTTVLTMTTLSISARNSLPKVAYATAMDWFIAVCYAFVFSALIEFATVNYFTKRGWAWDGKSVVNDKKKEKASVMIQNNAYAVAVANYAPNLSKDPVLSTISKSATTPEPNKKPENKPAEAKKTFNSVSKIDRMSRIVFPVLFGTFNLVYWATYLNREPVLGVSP
T2 sequence (P28472 26-473 partner): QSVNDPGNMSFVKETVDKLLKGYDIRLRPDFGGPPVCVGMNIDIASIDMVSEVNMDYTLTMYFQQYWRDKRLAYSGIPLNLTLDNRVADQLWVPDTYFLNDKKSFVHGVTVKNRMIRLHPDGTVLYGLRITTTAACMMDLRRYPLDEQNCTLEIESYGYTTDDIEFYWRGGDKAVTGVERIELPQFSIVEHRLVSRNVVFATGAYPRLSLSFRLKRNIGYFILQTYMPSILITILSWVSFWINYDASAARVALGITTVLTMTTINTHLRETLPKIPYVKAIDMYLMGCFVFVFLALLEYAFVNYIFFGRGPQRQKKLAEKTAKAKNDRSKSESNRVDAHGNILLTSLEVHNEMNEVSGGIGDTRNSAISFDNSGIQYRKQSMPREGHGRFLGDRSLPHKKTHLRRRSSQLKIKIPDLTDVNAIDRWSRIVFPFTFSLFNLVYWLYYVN
T2 sequence (P18507 40-475): as the sequence (P18507 40-475) above

SMILES | Relative Potentiation for GABAA1 (GABAA receptor α1β2γ2) | Ki [1]
COc1ccc(CN2Cc3nc4c(-c5ccc(OC)c(OC)c5)cccc4c(N)c3C2=O)cc1 | 0.61 | 47.7 nM
CCCN1Cc2nc3c(-c4cccc(C#N)c4)cccc3c(N)c2C1=O [3-(9-amino-1-oxo-2-propyl-2,3-dihydro-1H-pyrrolo[3,4-b]quinolin-5-yl)benzonitrile] | 0.54 | 21.2 nM
CCCN1Cc2nc3c(-c4cncc(C#N)c4)cccc3c(N)c2C1=O [5-(9-amino-1-oxo-2-propyl-2,3-dihydro-1H-pyrrolo[3,4-b]quinolin-5-yl)nicotinonitrile] | 0.26 | 64.9 nM
COc1ccc(CN2Cc3nc4c(-c5ccc(C)nc5C)cccc4c(N)c3C2=O)cc1OC [9-amino-2-(3,4-dimethoxybenzyl)-5-(2,6-dimethylpyridin-3-yl)-2,3-dihydro-1H-pyrrolo[3,4-b]quinolin-1-one] | 0.21 | 2.7 nM
COc1ccc(CN2Cc3nc4c(-c5cc(C)ccc5OC)cccc4c(N)c3C2=O)cc1OC [9-amino-2-(3,4-dimethoxybenzyl)-5-(2-methoxy-5-methylphenyl)-2,3-dihydro-1H-pyrrolo[3,4-b]quinolin-1-one] | 0.3 | 9.18 nM
COc1ccc(CN2Cc3nc4c(-c5cccnc5OC)cccc4c(N)c3C2=O)cc1OC [9-amino-2-(3,4-dimethoxybenzyl)-5-(2-methoxypyridin-3-yl)-2,3-dihydro-1H-pyrrolo[3,4-b]quinolin-1-one] | 0.12 | 2.3 nM
COc1ccc(-c2cccc3c(N)c4c(nc23)CN(Cc2ccc(OC)c(OC)c2)C4=O)c(C)n1 [9-amino-2-(3,4-dimethoxybenzyl)-5-(6-methoxy-2-methylpyridin-3-yl)-2,3-dihydro-1H-pyrrolo[3,4-b]quinolin-1-one] | 0.26 | 4.7 nM
COc1ccc(CN2Cc3nc4c(-c5cccnc5OC)cccc4c(N)c3C2=O)cc1Cl [9-amino-2-(3-chloro-4-methoxybenzyl)-5-(2-methoxypyridin-3-yl)-2,3-dihydro-1H-pyrrolo[3,4-b]quinolin-1-one] | 0.25 | 9.89 nM
COc1ccc(CN2Cc3nc4c(-c5cncc(OC)c5)cccc4c(N)c3C2=O)cc1 [9-amino-2-(4-methoxybenzyl)-5-(5-methoxypyridin-3-yl)-2,3-dihydro-1H-pyrrolo[3,4-b]quinolin-1-one] | 0.22 | 6.09 nM
COc1ncc(-c2cccc3c(N)c4c(nc23)CN(Cc2ccc3c(c2)OCO3)C4=O)c(OC)n1 [9-amino-2-(benzo[d][1,3]dioxol-5-ylmethyl)-5-(2,4-dimethoxypyrimidin-5-yl)-2,3-dihydro-1H-pyrrolo[3,4-b]quinolin-1-one] | 0.4 | 30.2 nM
COc1ccc(OC)c(-c2cccc3c(N)c4c(nc23)CN(Cc2ccc3c(c2)OCO3)C4=O)c1 [9-amino-2-(benzo[d][1,3]dioxol-5-ylmethyl)-5-(2,5-dimethoxyphenyl)-2,3-dihydro-1H-pyrrolo[3,4-b]quinolin-1-one] | 0.33 | 60.6 nM
COc1ncccc1-c1cccc2c(N)c3c(nc12)CN(Cc1ccc2c(c1)OCO2)C3=O [9-amino-2-(benzo[d][1,3]dioxol-5-ylmethyl)-5-(2-methoxypyridin-3-yl)-2,3-dihydro-1H-pyrrolo[3,4-b]quinolin-1-one] | 0.24 | 5.78 nM
Cc1cc(C)cc(-c2cccc3c(N)c4c(nc23)CN(C)C4=O)c1 [9-amino-5-(3,5-dimethylphenyl)-2-methyl-2,3-dihydro-1H-pyrrolo[3,4-b]quinolin-1-one] |  | 65.5 nM
CCCN1Cc2nc3c(-c4cccc(Cl)c4)cccc3c(N)c2C1=O [9-amino-5-(3-chlorophenyl)-2-propyl-2,3-dihydro-1H-pyrrolo[3,4-b]quinolin-1-one] |  | 76.5 nM
CCCN1Cc2nc3c(-c4cccc(F)c4OC)cccc3c(N)c2C1=O [9-amino-5-(3-fluoro-2-methoxyphenyl)-2-propyl-2,3-dihydro-1H-pyrrolo[3,4-b]quinolin-1-one] |  | 57 nM
COc1cc(F)cc(-c2cccc3c(N)c4c(nc23)CN(C)C4=O)c1 [9-amino-5-(3-fluoro-5-methoxyphenyl)-2-methyl-2,3-dihydro-1H-pyrrolo[3,4-b]quinolin-1-one] |  | 80.4 nM
CCCN1Cc2nc3c(-c4ccc(F)cc4)cccc3c(N)c2C1=O [9-amino-5-(4-fluorophenyl)-2-propyl-2,3-dihydro-1H-pyrrolo[3,4-b]quinolin-1-one] |  | 78.3 nM
CCCN1Cc2nc3c(-c4cnc(OC)c(F)c4)cccc3c(N)c2C1=O [9-amino-5-(5-fluoro-6-methoxypyridin-3-yl)-2-propyl-2,3-dihydro-1H-pyrrolo[3,4-b]quinolin-1-one] |  | 81.1 nM
CCCN1Cc2nc3c(-c4cnc(Cl)c(C)c4)cccc3c(N)c2C1=O [9-amino-5-(6-chloro-5-methylpyridin-3-yl)-2-propyl-2,3-dihydro-1H-pyrrolo[3,4-b]quinolin-1-one] |  | 85.7 nM
COc1cccc(F)c1-c1cccc2c(N)c3c(nc12)CN(C1CC1)C3=O [Example 16, 9-Amino-2-cyclopropyl-5-(2-fluoro-6-methoxyphenyl)-2,3-dihydropyrrolo[3,4-b]quinolin-1-one] |  | 3.63 nM and 6.36 nM
COc1ccc(-c2c(F)ccc3c(N)c4c(nc23)CN(C2CC2)C4=O)c(OC)c1 [Example 28, 9-Amino-2-cyclopropyl-5-(2,4-dimethoxyphenyl)-6-fluoro-2,3-dihydropyrrolo[3,4-b]quinolin-1-one] |  | 8.33 nM
CCN1Cc2nc3c(-c4cnc(OC)nc4OC)c(F)ccc3c(N)c2C1=O [Example 34, 9-Amino-5-(2,4-dimethoxypyrimidin-5-yl)-2-ethyl-6-fluoro-2,3-dihydropyrrolo[3,4-b]quinolin-1-one] |  | 16.7 nM
CCN1Cc2nc3c(-c4cnccc4OC)c(F)ccc3c(N)c2C1=O [Example 36, 9-Amino-2-ethyl-6-fluoro-5-(4-methoxypyridin-3-yl)-2,3-dihydropyrrolo[3,4-b]quinolin-1-one] |  | 2.43 nM
COc1ccc(-c2c(F)ccc3c(N)c4c(nc23)CN(C2CCC2)C4=O)c(OC)n1 [Example 52, 9-Amino-2-cyclobutyl-5-(2,6-dimethoxypyridin-3-yl)-6-fluoro-2,3-dihydropyrrolo[3,4-b]quinolin-1-one] |  | 0.774 nM
COc1ccc(-c2c(F)ccc3c(N)c4c(nc23)CN(C2CC2)C4=O)c(OC)n1 [Example 54, 9-Amino-2-cyclopropyl-5-(2,6-dimethoxypyridin-3-yl)-6-fluoro-2,3-dihydropyrrolo[3,4-b]quinolin-1-one] |  | 14.5 nM
CCCN1Cc2nc3c(-c4c(F)cccc4OC)c(F)ccc3c(N)c2C1=O [Example 55, 9-Amino-6-fluoro-5-(2-fluoro-6-methoxyphenyl)-2-propyl-2,3-dihydropyrrolo[3,4-b]quinolin-1-one] |  | 3.49 nM
